# Laboratory results as given in the supplement of paper PMC11061612.
# Experiments:
# Assay in all cases: Bliss excess, mean over the matrix (fraction); higher = more synergy
# [1] = tested on: UACC-62 (Melanoma)
# Method in brief: (§1)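 After 24 hours at 37°C and 5% CO2 in 1536-well plates, cells in DMEM/F12 or RPMI plus 10% FBS received two-drug dose matrices for 72 hours. Viability came from CellTiter-Glo 2.0 luminescence and was scaled as inhibition, anchored at 0 by vehicle wells and at 1 by blank wells. Combination Emax is taken as the second-highest inhibition in the matrix, and Bliss excess as the observed combination effect less EA + EB − EA·EB, with EA and EB the single-agent effects.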
# [2] = tested on: MIA-PaCa-2 (Pancreatic Carcinoma)
# Method in brief: as §1
# [3] = tested on: RF-48 (B-Cell Non-Hodgkin's Lymphoma)
# Method in brief: as §1
# [4] = tested on: KARPAS-299 (T-Cell Non-Hodgkin's Lymphoma)
# Method in brief: as §1
# [5] = tested on: TE-1 (Esophageal Squamous Cell Carcinoma)
# Method in brief: as §1
# [6] = tested on: TK10 (Kidney Carcinoma)
# Method in brief: as §1
# [7] = tested on: EFM-19 (Breast Carcinoma)
# Method in brief: as §1
# [8] = tested on: D-263MG (Glioblastoma)
# Method in brief: as §1
# [9] = tested on: NCI-H1915 (Non-Small Cell Lung Carcinoma)
# Method in brief: as §1
# [10] = tested on: HOP-62 (Lung Adenocarcinoma)
# Method in brief: as §1
# [11] = tested on: BT-549 (Breast Carcinoma)
# Method in brief: as §1
# [12] = tested on: EoL-1-cell (Acute Myeloid Leukemia)
# Method in brief: as §1
# [13] = tested on: MLMA (Other Blood Carcinomas)
# Method in brief: as §1
# [14] = tested on: AMO-1 (Plasma Cell Myeloma)
# Method in brief: as §1
# [15] = tested on: Caov-4 (Ovarian Carcinoma)
# Method in brief: as §1
# [16] = tested on: SW13 (Other Solid Carcinomas)
# Method in brief: as §1
# [17] = tested on: NB69 (Neuroblastoma)
# Method in brief: as §1
# [18] = tested on: SCC-15 (Oral Cavity Carcinoma)
# Method in brief: as §1
# [19] = tested on: NCI-H727 (Other Solid Carcinomas)
# Method in brief: as §1
# [20] = tested on: PANC-04-03 (Pancreatic Carcinoma)
# Method in brief: as §1
Structure (SMILES),Bliss excess [1],Bliss excess [2],Bliss excess [3],Bliss excess [4],Bliss excess [5],Bliss excess [6],Bliss excess [7],Bliss excess [8],Bliss excess [9],Bliss excess [10],Bliss excess [11],Bliss excess [12],Bliss excess [13],Bliss excess [14],Bliss excess [15],Bliss excess [16],Bliss excess [17],Bliss excess [18],Bliss excess [19],Bliss excess [20]
"CN(C)CCCOc1ccc(-c2ccc3ncc4c(c3c2)n(C2CCOCC2)c(=O)n4C)cn1 [AZD0156] + C=CCn1c(=O)c2cnc(Nc3ccc(N4CCN(C)CC4)cc3)nc2n1-c1cccc(C(C)(C)O)n1 [AZD1775] (first compound max 1 µM, partner max 1 µM)",0.0087,-0.0303,-0.0093,0.0063,-0.0167,-0.0318,-0.0295,-0.039,-0.0572,-0.0403,-0.0986,0.0416,-0.0081,0.011,0.0155,-0.0449,-0.0337,-0.0799,-0.095,-0.0836
"CN(C)CCCOc1ccc(-c2ccc3ncc4c(c3c2)n(C2CCOCC2)c(=O)n4C)cn1 [AZD0156] + CCN(CCO)CCCOc1ccc2c(Nc3cc(CC(=O)Nc4cccc(F)c4)[nH]n3)ncnc2c1 [AZD2811] (first compound max 1 µM, 7x7, partner max 1 µM)",-0.0467,0.0369,0.0084,0.0031,-0.0016,-0.0342,-0.0331,-0.0339,0.0174,-0.046,-0.0028,-0.0696,-0.0431,0.0053,0.005,0.0259,-0.0815,-0.0458,-0.0825,-0.0644
"CN(C)CCCOc1ccc(-c2ccc3ncc4c(c3c2)n(C2CCOCC2)c(=O)n4C)cn1 [AZD0156] + C[C@@H]1COCCN1C2=NC(=NC(=C2)C3(CC3)[S@](=N)(=O)C)C4=C5C=CNC5=NC=C4 [AZD6738] (first compound max 1 µM, 7x7, partner max 10 µM)",-0.0035,-0.0055,0.0487,-0.0283,-0.0595,0.001,-0.0264,0.0366,0.0366,-0.0232,-0.0042,0.0408,-0.0132,0.0146,-0.0388,0.0112,-0.069,-0.0209,0.0226,-0.0398
"CN(C)CCCOc1ccc(-c2ccc3ncc4c(c3c2)n(C2CCOCC2)c(=O)n4C)cn1 [AZD0156] + O=C(c1cc(Cc2n[nH]c(=O)c3ccccc23)ccc1F)N1CCN(C(=O)C2CC2)CC1 [Olaparib] (first compound max 3 µM, partner max 3 µM)",-0.028,-0.038,0.0064,0,-0.0185,-0.0279,0.0014,0.0132,0.0032,-0.0249,-0.0436,0.237,0.0255,0.0066,-0.0431,0.0694,0.0875,0.067,-0.0333,0.0481
"C=CCn1c(=O)c2cnc(Nc3ccc(N4CCN(C)CC4)cc3)nc2n1-c1cccc(C(C)(C)O)n1 [AZD1775] + C1CN(CCC1(C(=O)N[C@@H](CCO)C2=CC=C(C=C2)Cl)N)C3=NC=NC4=C3C=CN4 [Capivasertib] (first compound max 3 µM, partner max 3 µM)",0.0375,-0.0471,-0.0989,-0.0444,0.001,-0.124,-0.0443,-0.0143,0.0032,-0.0872,-0.0628,-0.0451,-0.0415,0.0002,-0.0398,-0.016,-0.0304,-0.0319,-0.0584,0.083
"C=CCn1c(=O)c2cnc(Nc3ccc(N4CCN(C)CC4)cc3)nc2n1-c1cccc(C(C)(C)O)n1 [AZD1775] + C[C@@H]1COCCN1C2=NC(=NC(=C2)C3(CC3)[S@](=N)(=O)C)C4=C5C=CNC5=NC=C4 [AZD6738] (first compound max 1 µM, partner max 10 µM)",0.0163,0.12,-0.0098,0.0169,-0.0395,-0.0896,-0.0503,-0.0766,-0.0225,0.0372,0.0107,0.0033,-0.0079,-0.0139,-0.0268,0.0169,0.0351,-0.0216,0.0078,-0.025
"C=CCn1c(=O)c2cnc(Nc3ccc(N4CCN(C)CC4)cc3)nc2n1-c1cccc(C(C)(C)O)n1 [AZD1775] + O=C(c1cc(Cc2n[nH]c(=O)c3ccccc23)ccc1F)N1CCN(C(=O)C2CC2)CC1 [Olaparib] (first compound max 1 µM, partner max 10 µM)",-0.0207,-0.0344,0.0129,-0.0605,-0.0834,-0.0601,-0.0456,-0.0366,-0.0223,-0.0381,-0.0528,0.0165,-0.0914,-0.0631,-0.0343,-0.0137,0.0619,-0.043,-0.0055,-0.0407
"CCN(CCO)CCCOc1ccc2c(Nc3cc(CC(=O)Nc4cccc(F)c4)[nH]n3)ncnc2c1 [AZD2811] + C=CCn1c(=O)c2cnc(Nc3ccc(N4CCN(C)CC4)cc3)nc2n1-c1cccc(C(C)(C)O)n1 [AZD1775] (first compound max 1 µM, partner max 1 µM)",-0.029,0.0756,0.0041,0.0057,0.019,-0.0707,-0.0269,0.0698,0.0056,-0.0287,0.017,-0.0033,0.0432,-0.0276,-0.0258,0.0821,-0.0383,0.0237,-0.0909,-0.0441
"CCN(CCO)CCCOc1ccc2c(Nc3cc(CC(=O)Nc4cccc(F)c4)[nH]n3)ncnc2c1 [AZD2811] + C[C@@H]1COCCN1C2=NC(=NC(=C2)C3(CC3)[S@](=N)(=O)C)C4=C5C=CNC5=NC=C4 [AZD6738] (first compound max 1 µM, 7x7, partner max 10 µM)",-0.0338,-0.0797,-0.0434,-0.0024,-0.0042,-0.0811,-0.0478,-0.0611,0.0021,-0.0313,0.0066,-0.0354,-0.0692,-0.0135,-0.0065,0.0474,-0.0806,-0.0478,-0.0849,-0.0563
"CCN(CCO)CCCOc1ccc2c(Nc3cc(CC(=O)Nc4cccc(F)c4)[nH]n3)ncnc2c1 [AZD2811] + O=C(c1cc(Cc2n[nH]c(=O)c3ccccc23)ccc1F)N1CCN(C(=O)C2CC2)CC1 [Olaparib] (first compound max 1 µM, 7x7, partner max 10 µM)",-0.004,0.0461,0.0181,0.0298,-0.031,-0.0391,-0.0669,-0.0018,0.025,-0.0376,-0.0015,-0.03,-0.0191,0.0193,0.0034,0.0345,-0.0517,-0.0376,-0.0184,-0.0177
"Cc1c2c(nn1C)CSCc1cc(n(C)n1)CSc1cc(c3ccccc3c1)OCCCc1c(C(=O)O)n(C)c3c-2c(Cl)ccc13 [AZD5991] + C=CCn1c(=O)c2cnc(Nc3ccc(N4CCN(C)CC4)cc3)nc2n1-c1cccc(C(C)(C)O)n1 [AZD1775] (first compound max 1 µM, partner max 1 µM)",0.0675,-0.0424,0.0064,-0.0032,-0.0456,0.0159,0.054,-0.0168,-0.0552,-0.0288,0.024,0.0097,-0.0326,-0.0189,-0.0345,0.0002,-0.0267,-0.0365,-0.0171,–
"Cc1c2c(nn1C)CSCc1cc(n(C)n1)CSc1cc(c3ccccc3c1)OCCCc1c(C(=O)O)n(C)c3c-2c(Cl)ccc13 [AZD5991] + CC1(C)CCC(CN2CCN(c3ccc(C(=O)NS(=O)(=O)c4ccc(NCC5CCOCC5)c([N+](=O)[O-])c4)c(Oc4cnc5[nH]ccc5c4)c3)CC2)=C(c2ccc(Cl)cc2)C1 [Venetoclax] (first compound max 1 µM, 7x7, partner max 1 µM)",0.0296,-0.023,0.12,0.0445,–,-0.0581,0.0055,-0.0036,-0.0211,-0.0574,0.0296,0.167,-0.0034,0.0456,-0.0137,0.0016,0.136,-0.0341,-0.012,-0.0381
"Cc1c2c(nn1C)CSCc1cc(n(C)n1)CSc1cc(c3ccccc3c1)OCCCc1c(C(=O)O)n(C)c3c-2c(Cl)ccc13 [AZD5991] + CCN(CCO)CCCOc1ccc2c(Nc3cc(CC(=O)Nc4cccc(F)c4)[nH]n3)ncnc2c1 [AZD2811] (first compound max 1 µM, 7x7, partner max 1 µM)",-0.0113,0.0738,0.0211,0.0426,0.0705,0.0117,0.122,0.122,0.0197,–,0.0908,0.0044,0.028,0.0145,0.0337,0.0895,0.0311,-0.0061,0.0473,-0.0143
"Cc1c2c(nn1C)CSCc1cc(n(C)n1)CSc1cc(c3ccccc3c1)OCCCc1c(C(=O)O)n(C)c3c-2c(Cl)ccc13 [AZD5991] + CN(C)CCCOc1ccc(-c2ccc3ncc4c(c3c2)n(C2CCOCC2)c(=O)n4C)cn1 [AZD0156] (first compound max 1 µM, 7x7, partner max 1 µM)",-0.0516,-0.0084,-0.0117,0.016,-0.0702,-0.0089,-0.03,0.0047,-0.0186,–,-0.004,-0.006,-0.0056,0.0058,-0.0035,-0.0092,-0.136,-0.0048,0.043,0.0116
"Cc1c2c(nn1C)CSCc1cc(n(C)n1)CSc1cc(c3ccccc3c1)OCCCc1c(C(=O)O)n(C)c3c-2c(Cl)ccc13 [AZD5991] + Cn1cnc2c(F)c(Nc3ccc(Br)cc3Cl)c(C(=O)NOCCO)cc21 [Selumetinib] (first compound max 1 µM, 7x7, partner max 3 µM)",-0.0465,0.0197,-0.0095,0.0496,0.019,0.0135,–,-0.0318,0.0375,-0.0626,0.0056,0.0751,0.0463,0.0129,0.0604,-0.0006,0.0377,0.0241,0.0213,0.0201
